Source: patent US20200368205A1, “METHODS AND COMBINATION THERAPY TO TREAT CANCER” (ARRAY BIOPHARMA INC., priority 2018, published 2020)

What was measured:
[1] = Binimetinib steady state exposure quoted in figure legends; details: total
RENCA tumors = assay: Growth of RENCA renal carcinoma tumors in retired mice; assay type: in vivo
Method: 1% CMC/0.5% Tween-80 (CMCT) was prepared by adding 960 mL of distilled water to a 1000 mL Pyrex® glass bottle with a stir bar in the bottom, and was used as the oral vehicle. […] Carboxymethylcellulose (5 g, CMC, low viscosity, Sigma C5678, Batch #033K0008) was added slowly, over one hour. The solution was stirred until the CMC dissolved and the solution was clear. 30 mg/kg MEK162 (Binimetinib, 100% active) was prepared as a white, homogeneous suspension in CMCT. MEK162 was administered in 10 mL/kg and dosed at 30 mg/kg (3.0 mg/mL) by oral gavage. To prepare, dry test compound (90 mg) was weighed and 30 mL CMCT added. Dose suspension was sonicated until a fine suspension was achieved (˜15 min). Final dose suspension was stored at 4° C. during live phase and sonicated to resuspend prior to dose administration. Dose suspension was prepared every 4-5 days or as needed. […] The antibody was administered at 100 μg/animal (100 μL of a 1 mg/mL dose solution) by intraperitoneal injection.
(§1) Male BALB/c mice from Charles River (Wilmington, Mass.) were obtained at 6-8 weeks of age and housed in groups of 5. Following a two week acclimation period, a suspension of 1×10^5 cells in a volume of 100 μL saline was implanted subcutaneously on the right flank of the animal near the axillary region. Animals were then randomly assigned to treatment groups. Treatment was initiated on day 4 after CT26 tumor cell inoculation to allow for a sufficient treatment window. MEK162 was administered once daily (QD) for 14 consecutive days by oral gavage (PO) at 30 mg/kg and anti-PD1 antibody was administered twice weekly by intraperitoneal injection (IP) (Table 4).
(§2) The combination was evaluated as concomitant administration or sequential where MEK162 treatment was initiated at the time that tumor resistance from anti-PD1 treatment emerged. For the sequential treatment group, animals were enrolled in MEK162 treatment when tumors reached 350-400 mm^3 after anti-PD1 antibody therapy was initiated.
(§3) Animals were monitored for tumor growth and body weight 2-3 times per week based on outgrowth kinetics. Tumor diameter was measured with digital calipers, and the tumor volume in mm^3 was calculated by the formula: Volume=((width)^2×length)/2. TGI was calculated on day 15. Animals were removed from study if found moribund or if tumor volume exceeded 1400 mm^3. At that time, tumor tissue was harvested and frozen for later analysis of T-cell clonality by immune sequencing (Adaptive Biotech, San Diego, Calif.).
Survival defined as morbidity, mortality or tumor size exceeding 1400 mm3. […] Cures: Animals with no palpable tumor at the end of the study were scored as cures. Maximum % Body Weight Loss (% BWL): % BWL=100(1−BWt/BW0); BW0 is group mean body weight at study start and BWt is group mean or median body weight on day where maximal body weight loss is observed. Tx-Related Deaths: Death occurring during live phase specifically due to drug administration and not attributable to other causes (e.g. gavage trauma, tumor-related morbidity, etc.)
For mice that were injected subcutaneously with RENCA cells, retired female breeders were used (23 weeks old). 200 μg of αPD-1 was administered on days 1, 4, 8 and 11.

melanoma cell lines = assay: MHC class I expression across the panel of eight melanoma cell lines; assay type: cell-based, human
Method: (§4) The goal of this study was to measure the effects of binimetinib on cell surface MHC class I expression in various melanoma cell lines. In this study, eight melanoma cell lines were evaluated: MEL-JUSO (NRAS Q61L mutation), IPC-298 (NRAS Q61L mutation), A375 (BRAF V600E, homozygous mutation), HS936.T (NRAS Q61K mutation and BRAF N581K mutation), MM485 (NRAS Q61R mutation), SK-MEL-2 (NRAS Q61R mutation), MM415 (NRAS Q61L mutation), Malme-3M (BRAF V600E, heterozygous mutation). The cells lines were seeded into flat bottom 96-well tissue culture plates at a density of 5000 cells per well and allowed to adhere overnight. The following day cells were treated with vehicle control (0.25% DMSO) or varying dilutions of Binimetinib (0.7 nM-25000 nM) for 1 hour. Cells were then treated with vehicle control or 100 ng/ml IFNgamma (R&D systems) for 72 hours. Cells were washed, trypsinized, and stained with Alexa Fluor® 647 anti-human HLA-A,B,C antibody (W6/32, eBioscience) and analyzed on a BD FACSCanto II flow cytometer. An IFNg titration and time course were performed for assay optimization. Maximal induction of MHC class I expression was seen ˜100 ng/mL of IFNγ (see, e.g., FIGS. 1 and 2).

B16F10 tumors = assay: Growth of B16F10 melanoma tumors; assay type: in vivo
Method: [The procedure below names another cell line; the source lists this cell line under the same test.] (§5) 1% CMC/0.5% Tween-80 (CMCT) was prepared by adding 960 mL of distilled water to a 1000 mL Pyrex® glass bottle with a stir bar in the bottom, and was used as the oral vehicle. The water was warmed to 50-60° C. then 5 mL Tween® 80 (polyoxyethylenesorbitan monooleate, Sigma P2287, batch #054K0154) and 15.6 mL benzyl alcohol (Sigma 402834, Batch #00296PK) added. Carboxymethylcellulose (5 g, CMC, low viscosity, Sigma C5678, Batch #033K0008) was added slowly, over one hour. The solution was stirred until the CMC dissolved and the solution was clear. 30 mg/kg MEK162 (Binimetinib, 100% active) was prepared as a white, homogeneous suspension in CMCT. MEK162 was administered in 10 mL/kg and dosed at 30 mg/kg (3.0 mg/mL) by oral gavage. To prepare, dry test compound (90 mg) was weighed and 30 mL CMCT added. Dose suspension was sonicated until a fine suspension was achieved (˜15 min). Final dose suspension was stored at 4° C. during live phase and sonicated to resuspend prior to dose administration. Dose suspension was prepared every 4-5 days or as needed. 100 μg αPD-1 RMP1-14, Rat IgG2a isotype (BioXCell cat.no. BP0146, lot #5792×2/1015)−7.12 mg/mL stock concentration. RMP1-14 was prepared by dilution of 0.843 stock solution with 5.157 mL sterile saline for injection. The antibody was administered at 100 μg/animal (100 μL of a 1 mg/mL dose solution) by intraperitoneal injection.
as §1, §2
as §3, with “Calif.). […]” for “Calif.).”
The mean values for tumor volume and body weight by study day for each experimental group were plotted including error bars for the standard error of the mean. % Tumor Growth Inhibition (% TGI): % TGI=100(1−Wt/Wc); Wt is the mean tumor volume of the treated group on day X; We is the mean tumor volume of controls on day X, where X is the last day that the control group is available in its entirety. […] Cures: Animals with no palpable tumor at the end of the study were scored as cures. […]

Cloudman S91 tumors = assay: Growth of Cloudman S91 melanoma tumors; assay type: in vivo
[2] = test system: Malme-3M (BRAF V600E) cells; assay: MHC class I cell surface expression, flow cytometry; assay type: cell-based, human; details: 72 hours
Method: as §4

IPC298 (NRAS Q61L) cells = assay: as above; assay type: cell-based, human; details: 72 hours
Method: as §4

MM415 (NRAS Q61L) cells = assay: as above; assay type: cell-based, human; details: 72 hours
Method: as §4

[3] = test system: SKMEL-2 (NRAS Q61R) cells; assay: as above; assay type: cell-based, human; details: 72 hours
Method: as §4

[4] = test system: HS936.T (NRAS Q61K, BRAF N581K) cells; assay: as above; assay type: cell-based, human; details: 72 hours
Method: as §4

MM485 (NRAS Q61R) cells = assay: as above; assay type: cell-based, human; details: 72 hours
Method: as §4

A375 (BRAF V600E) cells = assay: as above; assay type: cell-based, human; details: 72 hours
Method: as §4

[5] = test system: MELJUSO (NRAS Q61L) cells; assay: as above; assay type: cell-based, human; details: for Maximal Fold Increase in MHC Class I Expression: MELJUSO (NRAS Q61L), 72 hours
Method: as §4

[6] = test system: KRas mutant CT26 syngeneic tumors; assay: Growth of KRas mutant CT26 murine colon syngeneic tumors; assay type: in vivo; details: for Cures (day 61): animals with no palpable tumor at study end
Method: as §5, §1, §2
as §3, with “TGI was calculated on day 15.” left out, “Calif.). Food, water, temperature and humidity were according to Pharmacology Testing Facility performance standards (SOP's) which are in accordance with the 1996 Guide for the Care and Use of Laboratory Animals (NRC) and AAALAC-International.” for “Calif.).”
The murine CT26 cell line (a.k.a. Colon 26 or Colon Tumor #26) was developed in 1975 by exposing BALB/c mice to N-nitroso-N-methylurethane-(NNMU) (Corbett et al., 1975). The undifferentiated colon carcinoma cell line with fibroblast morphology was isolated from BALB/c mice. Extensive genomics, immune phenotyping and therapeutic background are available on this cell line (information summarized from Bhadury et al., 2013, Castle et al., 2014). The cell line is reported to harbor a KRas G12D mutation and the in-house cell line was sequenced and found to match the reported mutation (BGI, Cambridge, Mass.). Literature reports expression of MHC class I but not II and a mutational load of 1688 non-synonymous point mutations; 154 are both in expressed genes and in peptides predicted to bind MHC. […]

Cn1cnc2c(F)c(Nc3ccc(Br)cc3F)c(C(=O)NOCCO)cc21 [Binimetinib, 6-(4-bromo-2-fluorophenylamino)-7-fluoro-3-methyl-3H-benzoimidazole-5-carboxylic acid (2-hydroxyethoxy)-amide]
Trough (day 15) [1]: 310 nM | Cures (day 43) (RENCA tumors; retired mice): 0/12 | % TGI (day 18) (RENCA tumors; retired mice (23 weeks of age), binimetinib 30 mg/kg, αPD-1 200 μg days 1, 4, 8 and 11): 25% | Deaths (RENCA tumors; retired mice, vehicle 9/12): 10/12 | Maximum % BWL (RENCA tumors; retired mice, vehicle 15.1): 23.3% | Median Survival (RENCA tumors; retired mice, vehicle 21): 24 | melanoma cell lines with increased MHC class I cell surface expression (melanoma cell lines; binimetinib alone, eight melanoma cell lines): 6 of 8 | fold increase in MHC class I cell surface expression (melanoma cell lines; binimetinib alone, in 6 of 8 melanoma cell lines): 1.5-3 fold | fold increase of IFNg-induced MHC class I (melanoma cell lines; with IFNg, all tested cell lines): 1.5-4 fold | Cures (day 61) (B16F10 tumors; B16F10 tumors): 0/10 | Deaths (B16F10 tumors; B16F10 tumors): 2/10 | % TGI (day 13) (B16F10 tumors; B16F10 tumors, C57BL/6 mice, binimetinib 30 mg/kg, anti-PD-1 100 μg): 59.0% | Median Survival (B16F10 tumors; B16F10 tumors, vehicle 14): 19 | Max % BWL (B16F10 tumors; mouse, in vivo): 0.8% | Cures (day 44) (Cloudman S91 tumors): 0/10 | Deaths (Cloudman S91 tumors): 0/10 | % TGI (day 8) (Cloudman S91 tumors; DBA/2 mice, binimetinib 30 mg/kg, anti-PD-1 100 μg): −17% | Max % BWL (Cloudman S91 tumors; vehicle 12.4): 4.8% | Median Survival (Cloudman S91 tumors; vehicle 13): 11 | Maximal Fold Increase in MHC Class I Expression ([2]; +IFNg 100 ng/ml): 1.5 fold | Maximal Fold Increase in MHC Class I Expression ([2]; −IFNg): 0 fold | Maximal Fold Increase in MHC Class I Expression (IPC298 (NRAS Q61L) cells; +IFNg 100 ng/ml): 3 fold | Maximal Fold Increase in MHC Class I Expression (IPC298 (NRAS Q61L) cells; −IFNg): 2 fold | Maximal Fold Increase in MHC Class I Expression (MM415 (NRAS Q61L) cells; +IFNg 100 ng/ml): 2 fold | Maximal Fold Increase in MHC Class I Expression (MM415 (NRAS Q61L) cells; −IFNg): 0 fold | Maximal Fold Increase in MHC Class I Expression ([3]; +IFNg 100 ng/ml): 1.5 fold | Maximal Fold Increase in MHC Class I Expression ([3]; −IFNg): 2 fold | Maximal Fold Increase in MHC Class I Expression ([4]; +IFNg 100 ng/ml): 2 fold | Maximal Fold Increase in MHC Class I Expression ([4]; −IFNg): 1.5 fold | Maximal Fold Increase in MHC Class I Expression (MM485 (NRAS Q61R) cells; +IFNg 100 ng/ml): 2 fold | Maximal Fold Increase in MHC Class I Expression (MM485 (NRAS Q61R) cells; −IFNg): 2 fold | Maximal Fold Increase in MHC Class I Expression (A375 (BRAF V600E) cells; +IFNg 100 ng/ml): 4 fold | Maximal Fold Increase in MHC Class I Expression (A375 (BRAF V600E) cells; −IFNg): 2 fold | increase in MHC class I expression ([5]; MELJUSO (NRAS Q61L) cells, binimetinib alone, FIG. 5A): 2.5 fold | enhancement of IFNγ-induced MHC class I expression ([5]; MELJUSO (NRAS Q61L) cells, in the presence of 100 ng/mL IFNg): 4-5 fold | Maximal Fold Increase in MHC Class I Expression ([5]; +IFNg 100 ng/ml): 4 fold | Maximal Fold Increase in MHC Class I Expression ([5]; −IFNg): 3 fold | Deaths ([6]; BALB/c mice): 0/10 | % TGI (Day 13) ([6]; BALB/c mice, MEK162 30 mg/kg PO QD x14, anti-PD1 100 μg IP D 1, 4, 8, 11): 43% | % TGI (Day 13) ([6]; BALB/c mice, MEK162 30 mg/kg PO QD x14, anti-PD1 100 μg IP D 1, 4, 8, 11, 30 mg/kg): 43% | Max % BWL ([6]; BALB/c mice, maximum body weight loss): 0.6% | Median Survival ([6]; BALB/c mice, vehicle 18 days): 26 days | Cures (day 61) [6]: 0/10 | Cures (day 61) ([6]; listed as MEK162): no cures

IFNγ: IFNgamma (R&D systems) used to induce MHC class I expression
IFNγ concentration giving maximal induction of MHC class I expression (melanoma cell lines; IFNg titration, 72-hour treatment, FIGS. 1 and 2 (A375, SKMEL-2)): ~100 ng/mL
